Patent publication US20240000767A1, “COMBINATION OF AN ALPHA2-ADRENOCEPTOR SUBTYPE C (ALPHA-2C) ANTAGONIST WITH A TASK1/3 CHANNEL BLOCKER FOR THE TREATMENT OF SLEEP APNEA” (Bayer Aktiengesellschaft, priority 2020, published 2024)

Experiments:
[1] = test system: anaesthetized, spontaneously breathing pigs; assay: Pig model of obstructive sleep apnea (OSA): upper airway collapsibility under negative pressure; format: in vivo, German Landrace pigs; conditions: 0.3 μg intranasal at 0 min
Excerpt: B-3 Animal Model of Obstructive Sleep Apnoea in the Pig
Using negative pressure, it is possible to induce collapse and thus obstruction of the upper respiratory tract in anesthetized, spontaneously breathing pigs [Wirth et al., Sleep 36, 699-708 (2013)].
German Landrace pigs are used for the model. The pigs are anesthetized and tracheotomized. One cannula each is inserted into the rostral and the caudal part of the trachea. Using a T connector, the rostral cannula is connected on the one hand to a device generating negative pressures and on the other hand to the caudal cannula. Using a T connector, the caudal cannula is connected to the rostral cannula and to a tube which allows spontaneous breathing circumventing the upper respiratory tract. By appropriate closing and opening of the tubes it is thus possible for the pig to change from normal nasal breathing to breathing via the caudal cannula during the time when the upper respiratory tract is isolated and connected to the device for generating negative pressures. The muscle activity of the musculus genioglossus is recorded by electromyogram (EMG).
(§1) At certain points in time, the collapsibility of the upper respiratory tract is tested by having the pig breathe via the caudal cannula and applying negative pressures of −50, −100 and −150 cm water head (cmH2O) to the upper respiratory tract. This causes the upper respiratory tract to collapse, which manifests itself in an interruption of the airflow and a pressure drop in the tube system. This test is conducted prior to the administration of the test substance and at certain intervals after the administration of the test substance. An appropriately effective test substance can prevent this collapse of the respiratory tract in the inspiratory phase.
Administration of the test substance can be intranasal, intravenous, subcutaneous, intraperitoneal, intraduodenal or intragastral.
The therapeutic potential of the combination of an α2-Adrenoceptor subtype C (alpha-2C) antagonists with a TASK⅓ channel blocker according to the present invention in sleep apnea can be assessed preclinically in a pig model of obstructive sleep apnea (OSA).
Using negative pressure, it is possible to induce collapse and thus obstruction of the upper respiratory tract in anaesthetized, spontaneously breathing pigs (Wirth K. J. et al., Sleep 36(5) (2013) pp. 699-708).
German Landrace pigs are used for the model. The pigs are anaesthetized and tracheotomized. Two tracheal cannulas are inserted into the trachea, one into the rostral part and the other into the caudal part of the trachea. Using a connection piece, the rostral cannula is connected to a tube to the negative pressure device and to the distal tracheal cannula. The distal tracheal cannula is additionally connected to a tube with an open end to atmosphere via a connection piece that served for free tracheal breathing, circumventing the upper airway. By appropriate opening and clamping of those tubes breathing can be switched from nasal breathing to breathing through the caudal tracheal cannula, circumventing the upper airway, and the (isolated) upper airway can be connected to the negative pressure device, causing airflow in the inspiratory direction.
as §1, with “(cm H2O)” for “(cmH2O)”

human ADRA2C receptor = human ADRA2C receptor (Homo sapiens (Human), UniProt P18825); assay: In vitro activity assay to determine the inhibition of recombinant ADRA2C (CHO-K1 cells, aequorin bioluminescence); format: cell-based; conditions: inhibition of noradrenaline-induced bioluminescence signal; some mean values from multiple determinations; read-out: ARα2C IC50
Method in brief: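 IC50 is the concentration halving the agonist (noradrenaline)-evoked rise in aequorin luminescence, fitted by 4-parameter Hill function. Read in stable Gαq/aequorin CHO-K1 cells expressing recombinant human ADRA2C.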

Chain of human ADRA2C receptor (P18825 whole entry): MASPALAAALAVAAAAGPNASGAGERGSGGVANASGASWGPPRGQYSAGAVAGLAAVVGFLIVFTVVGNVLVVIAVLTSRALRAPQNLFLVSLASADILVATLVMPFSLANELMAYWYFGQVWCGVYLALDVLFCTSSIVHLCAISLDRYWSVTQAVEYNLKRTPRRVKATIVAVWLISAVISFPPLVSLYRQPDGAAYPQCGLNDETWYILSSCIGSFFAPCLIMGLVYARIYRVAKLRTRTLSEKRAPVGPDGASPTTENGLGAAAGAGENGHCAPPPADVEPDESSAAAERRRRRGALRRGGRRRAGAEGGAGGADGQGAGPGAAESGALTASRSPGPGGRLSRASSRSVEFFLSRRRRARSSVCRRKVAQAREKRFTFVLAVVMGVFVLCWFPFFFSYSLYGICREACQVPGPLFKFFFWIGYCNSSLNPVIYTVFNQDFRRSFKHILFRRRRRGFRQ

| SMILES | IC50 (human ADRA2C receptor) [µM] | also measured |
| --- | --- | --- |
| COc1cccc(C(=O)N2CCN(Cc3c(-c4ccc(Cl)cc4)nc4ccccn34)CC2)n1 [(4-{[2-(4-chlorophenyl)imidazo[1,2-a]pyridin-3-yl]methyl}piperazin-1-yl)(6-methoxypyridin-2-yl)methanone] |  | Percent pigs without collaps −50 cm H2O ([1]; time 0 min): 0%; Percent pigs without collaps −100 cm H2O ([1]; time 0 min): 0%; Percent pigs without collaps −150 cm H2O ([1]; time 0 min): 0%; Percent pigs without collaps −50 cm H2O ([1]; time 10 min): 0%; Percent pigs without collaps −100 cm H2O ([1]; time 10 min): 0%; Percent pigs without collaps −150 cm H2O ([1]; time 10 min): 0%; Percent pigs without collaps −50 cm H2O ([1]; time 30 min): 0%; Percent pigs without collaps −100 cm H2O ([1]; time 30 min): 0%; Percent pigs without collaps −150 cm H2O ([1]; time 30 min): 0%; Percent pigs without collaps −50 cm H2O ([1]; time 60 min): 0%; Percent pigs without collaps −100 cm H2O ([1]; time 60 min): 0%; Percent pigs without collaps −150 cm H2O ([1]; time 60 min): 0% |
| C[C@@H]1CCCN(C2CCN(c3nc(C(=O)NCc4ncc(F)cc4F)co3)CC2)C1 [Example 13, N-[(3,5-difluoropyridin-2-yl)methyl]-2-[(3R)-3-methyl[1,4′-bipiperidin]-1′-yl]-1,3-oxazole-4-carboxamide] | 0.209 |  |
| O=C(NCc1ncc(F)cc1F)c1cnc(N2CCC(N3CCCC4(C3)CC4(F)F)CC2)s1 (single isomer, unassigned; ent-2) [Example 131, ent-2-[4-(1,1-Difluoro-5-azaspiro[2.5]octan-5-yl)piperidin-1-yl]-N-[(3,5-difluoropyridin-2-yl)methyl]-1,3-thiazole-5-carboxamide] | 0.0019 |  |
| COCCC1CCCN(C2CCN(c3ncc(C(=O)NCc4ncc(F)cc4F)s3)CC2)C1 (stereo not shown) [Example 148] | 0.0013 |  |
| O=C(NCc1ncc(F)cc1F)c1cnc(N2CCC(N3CCCC(OCC(F)(F)F)C3)CC2)s1 (racemic) [Example 77, rac-N-[(3,5-Difluoropyridin-2-yl)methyl]-2-[3-(2,2,2-trifluoroethoxy)[1,4′-bipiperidin]-1′-yl]-1,3-thiazole-5-carboxamide] | 0.64 |  |
| O=C(NCc1ncc(F)cc1F)c1cnc(N2CCC(N3CCCC4(C3)CC4(F)F)C(F)C2)s1 (stereo not shown) [Example 134, diamix-2-[4-(1,1-Difluoro-5-azaspiro[2.5]octan-5-yl)-3-fluoropiperidin-1-yl]-N-[(3,5-difluoropyridin-2-yl)methyl]-1,3-thiazole-5-carboxamide] | 0.00074 |  |
| O=C(NCc1ncc(F)cc1F)c1cnc(N2CCC(N3CCCC(OC4CC(F)(F)C4)C3)CC2)s1 (racemic) [Example 110, rac-2-{3-[(3,3-Difluorocyclobutyl)oxy][1,4′-bipiperidin]-1′-yl}-N-[(3,5-difluoropyridin-2-yl)methyl]-1,3-thiazole-5-carboxamide] | 0.0015 |  |
| COCC1CCCN(C2CCN(c3ncc(C(=O)NCc4ncc(F)cc4F)s3)CC2)C1 (racemic) [Example 48, rac-N-[(3,5-Difluoropyridin-2-yl)methyl]-2-[3-(methoxymethyl)[1,4′-bipiperidin]-1′-yl]-1,3-thiazole-5-carboxamide] | 0.017 |  |
| O=C(NCc1ncc(F)cc1F)c1cnc(N2CCC(N3CCCC(CCF)C3)CC2)s1 (racemic) [Example 127, rac-Formic acid N-[(3,5-difluoropyridin-2-yl)methyl]-2-[3-(2-fluoroethyl)[1,4′-bipiperidin]-1′-yl]-1,3-thiazole-5-carboxamide] | 0.0084 |  |
| O=C(NCc1ncc(F)cc1F)c1cnc(N2CCC(N3CCc4cccc(Cl)c4C3)CC2)s1 [Example 141] | 0.0087 |  |
| Cc1ccc(C(C)NC(=O)c2cnc(N3CCC(N4CCC[C@@H](C)C4)CC3)s2)cc1 (stereo partly shown) [Example 95] | 0.8 |  |
| COc1ccc(F)cc1NC(=O)c1cnc(N2CCC(N3CCC[C@@H](C)C3)CC2)s1 [Example 97] | 1.3 |  |
| C[C@@H]1CCCN(C2CCN(c3nc(C(=O)NCc4ncc(F)cc4F)cs3)CC2)C1 [Example 10, N-[(3,5-difluoropyridin-2-yl)methyl]-2-[(3R)-3-methyl[1,4′-bipiperidin]-1′-yl]-1,3-thiazole-4-carboxamide] | 0.0214 |  |
| C[C@@H]1CCCN(C2CCN(c3ncc(C(=O)NCc4cc(F)ccc4F)s3)CC2)C1 [Example 81] | 0.0222 |  |
| O=C(NCc1ncc(F)cc1F)c1cnc(N2CCC(N3CCc4c(Cl)cccc4C3)CC2)s1 [Example 142] | 0.0067 |  |
| C[C@@H]1CCCN(C2CCN(c3nc(C(=O)NCc4ncc(F)cc4F)co3)CC2F)C1 (mixture of isomers) [Example 112, diamix-N-[(3,5-Difluoropyridin-2-yl)methyl]-2-[(3R)-3′-fluoro-3-methyl[1,4′-bipiperidin]-1′-yl]-1,3-oxazole-4-carboxamide] | 0.0012 |  |
| O=C(NCc1ncc(F)cc1F)c1cnc(N2CCC(N3CCCC(COCC4(C(F)F)CC4)C3)CC2)s1 (racemic) [Example 61, rac-2-[3-({[1-(Difluoromethyl)cyclopropyl]methoxy}methyl)[1,4′-bipiperidin]-1′-yl]-N-[(3,5-difluoropyridin-2-yl)methyl]-1,3-thiazole-5-carboxamide] | 0.087 |  |
